Assay results published in BigSolDB 2.1.

Oc1cc(Cl)ccc1Oc1ccc(Cl)cc1Cl
solubility (mole fraction)
Settings | in chloroform | in ethanol | in isopropyl myristate | in n-heptane | in n-octanol
293.15 K | 0.33 | 0.332 | 0.0422 | 0.0156 | 0.0089
298.15 K | 0.412 | 0.449 | 0.0475 | 0.0286 | 0.025
303.15 K | 0.501 | 0.57 | 0.0527 | 0.0421 | 0.0785
308.15 K | 0.561 | 0.654 | 0.0563 | 0.0605 | 0.157
313.15 K | 0.633 | 0.751 | 0.0594 | 0.0806 | 0.285
